Measurements taken from PubChem BioAssay AID1259407 (Chemical Carcinogenesis Research Information System (CCRIS), 2018).
Active and inactive are the calls of the source. No rule for the calls is given here.

Tested on: CCRIS mutagenicity, Ames/micronucleus/aberration tests
Assay: CCRIS mutagenicity studies

Measured: mutagenic call

Cc1c2ccccc2c(C)c2c1ccc1ccccc12
active: End Point: IN VITRO CHROMOSOMAL ABERRATIONS, Test System: CHL/IU CELLS, Metabolic Activation: RAT, LIVER, S-9, PHENOBARBITAL AND 5,6-BENZOFLAVONE active; positive (structural changes) | End Point: IN VITRO MICRONUCLEUS, Test System: CHL/IU CELLS, Metabolic Activation: RAT, LIVER, S-9, PHENOBARBITAL AND 5,6-BENZOFLAVONE active; positive | End Point: IN VITRO MICRONUCLEUS, Test System: CHO CELLS, Metabolic Activation: RAT, LIVER, S-9, AROCLOR 1254 active; positive | End Point: IN VITRO MICRONUCLEUS, Test System: V79 CELLS, Metabolic Activation: RAT, LIVER, S-9, AROCLOR 1254 active; positive | End Point: IN VIVO CHROMOSOMAL ABERRATIONS, Test System: MAMMARY GLAND CELLS, USING DUAL PROBE FISH, Species: RAT, Strain/Sex: SPRAGUE-DAWLEY/FEMALE, Route: INTRAGASTRIC active; positive (hyperdiploidy and polyploidy) | End Point: IN VIVO MICRONUCLEUS, Test System: BLOOD ERYTHROCYTES, Species: MOUSE, Strain/Sex: CD-1/MALE, Route: ORAL active; positive | Test System: AMES SALMONELLA TYPHIMURIUM, Strain/Indicator: TA97, Metabolic Activation: NONE, Method: STANDARD PLATE active; positive | Test System: AMES SALMONELLA TYPHIMURIUM, Strain/Indicator: TA97, Metabolic Activation: RAT, LIVER, S-9, PCB, Method: STANDARD PLATE active; positive | Test System: AMES SALMONELLA TYPHIMURIUM, Strain/Indicator: TA98, Metabolic Activation: NONE, Method: SPIRAL ASSAY active; positive | Test System: AMES SALMONELLA TYPHIMURIUM, Strain/Indicator: TA98, Metabolic Activation: RAT, LIVER, S-9, AROCLOR 1254, Method: SPIRAL ASSAY active; positive | Test System: AMES SALMONELLA TYPHIMURIUM, Strain/Indicator: TA98, Metabolic Activation: RAT, LIVER, S-9, AROCLOR 1254, Method: STANDARD PLATE active; positive | Test System: AMES SALMONELLA TYPHIMURIUM, Strain/Indicator: TA98, Metabolic Activation: RAT, LIVER, S-9, PCB, Method: STANDARD PLATE active; positive | Test System: AMES SALMONELLA TYPHIMURIUM, Strain/Indicator: TA98, Method: STANDARD PLATE active; positive | Test System: AMES SALMONELLA TYPHIMURIUM, Strain/Indicator: TA100, Metabolic Activation: MOUSE, LIVER, MICROSOMES, BENZO[E]PYRENE AND TCDD, Method: STANDARD PLATE active; positive | Test System: AMES SALMONELLA TYPHIMURIUM, Strain/Indicator: TA100, Metabolic Activation: NONE, Method: SPIRAL ASSAY active; positive | Test System: AMES SALMONELLA TYPHIMURIUM, Strain/Indicator: TA100, Metabolic Activation: RAT, INTACT HEPATOCYTES, AROCLOR 1254, Method: PREINCUBATION active; positive | Test System: AMES SALMONELLA TYPHIMURIUM, Strain/Indicator: TA100, Metabolic Activation: RAT, LIVER, MICROSOMES, 3-METHYLCHOLANTHRENE, Method: PREINCUBATION active; positive | Test System: AMES SALMONELLA TYPHIMURIUM, Strain/Indicator: TA100, Metabolic Activation: RAT, LIVER, MICROSOMES, SODIUM PHENOBARBITAL, Method: PREINCUBATION active; positive | Test System: AMES SALMONELLA TYPHIMURIUM, Strain/Indicator: TA100, Metabolic Activation: RAT, LIVER, MICROSOMES, SUDAN III, Method: PREINCUBATION active; positive | Test System: AMES SALMONELLA TYPHIMURIUM, Strain/Indicator: TA100, Metabolic Activation: RAT, LIVER, MICROSOMES, Method: PREINCUBATION active; positive | Test System: AMES SALMONELLA TYPHIMURIUM, Strain/Indicator: TA100, Metabolic Activation: RAT, LIVER, S-9, AROCLOR 1254, Method: SPIRAL ASSAY active; positive | Test System: AMES SALMONELLA TYPHIMURIUM, Strain/Indicator: TA100, Metabolic Activation: RAT, LIVER, S-9, AROCLOR 1254, Method: STANDARD PLATE active; positive | Test System: AMES SALMONELLA TYPHIMURIUM, Strain/Indicator: TA100, Metabolic Activation: RAT, LIVER, S-9, EUGENOL, Method: PREINCUBATION active; positive | Test System: AMES SALMONELLA TYPHIMURIUM, Strain/Indicator: TA100, Metabolic Activation: RAT, LIVER, S-9, KC500 OR PHENOBARBITAL, Method: LIQUID SUSPENSION active; positive | Test System: AMES SALMONELLA TYPHIMURIUM, Strain/Indicator: TA100, Metabolic Activation: RAT, LIVER, S-9, PCB, Method: STANDARD PLATE active; positive | Test System: AMES SALMONELLA TYPHIMURIUM, Strain/Indicator: TA100, Metabolic Activation: RAT, LIVER, S-9, PHENOBARBITAL, Method: STANDARD PLATE active; positive | Test System: AMES SALMONELLA TYPHIMURIUM, Strain/Indicator: TA100, Metabolic Activation: RAT, LIVER, S-9, Method: PREINCUBATION active; positive | Test System: AMES SALMONELLA TYPHIMURIUM, Strain/Indicator: TA100, Metabolic Activation: RAT, NADPH-FORTIFIED HOMOGENIZED HEPATOCYTES, AROCLOR 1254, Method: PREINCUBATION active; positive | Test System: AMES SALMONELLA TYPHIMURIUM, Strain/Indicator: TA100, Metabolic Activation: RAT, SONICATED HEPATOCYTES, AROCLOR 1254, Method: PREINCUBATION active; positive | Test System: AMES SALMONELLA TYPHIMURIUM, Strain/Indicator: TA100, Method: STANDARD PLATE active; positive | Test System: AMES SALMONELLA TYPHIMURIUM, Strain/Indicator: TA1537, Metabolic Activation: NONE, Method: SPIRAL ASSAY active; positive | Test System: AMES SALMONELLA TYPHIMURIUM, Strain/Indicator: TA1537, Metabolic Activation: NONE, Method: STANDARD PLATE active; positive | Test System: AMES SALMONELLA TYPHIMURIUM, Strain/Indicator: TA1537, Metabolic Activation: RAT, LIVER, S-9, AROCLOR 1254, Method: SPIRAL ASSAY active; positive | Test System: AMES SALMONELLA TYPHIMURIUM, Strain/Indicator: TA1537, Metabolic Activation: RAT, LIVER, S-9, AROCLOR 1254, Method: STANDARD PLATE active; positive | Test System: AMES SALMONELLA TYPHIMURIUM, Strain/Indicator: TA1537, Metabolic Activation: RAT, LIVER, S-9, KC500 OR PHENOBARBITAL, Method: LIQUID SUSPENSION active; positive | Test System: AMES SALMONELLA TYPHIMURIUM, Strain/Indicator: TA1538, Metabolic Activation: RAT, LIVER, S-9, AROCLOR 1254, Method: STANDARD PLATE active; positive | Test System: CHINESE HAMSTER OVARY, Strain/Indicator: CHO-K1-BH4 (HGPRT), Metabolic Activation: RAT, LIVER, S-9, AROCLOR, Method: SUSPENSION/PLATE active; positive | Test System: CHINESE HAMSTER V-79, Strain/Indicator: V-79/6-THIOGUANINE, Metabolic Activation: RAT, HEPATOCYTES, BUTYLATED HYDROXYANISOLE, Method: STANDARD PLATE active; positive | Test System: CHINESE HAMSTER V-79, Strain/Indicator: V-79/6-THIOGUANINE, Metabolic Activation: RAT, HEPATOCYTES, Method: STANDARD PLATE active; positive | Test System: CHINESE HAMSTER V-79, Strain/Indicator: V-79/6-THIOGUANINE, Metabolic Activation: RAT, LIVER, S-9, PHENOBARBITAL, Method: STANDARD PLATE active; positive | Test System: CHINESE HAMSTER V-79, Strain/Indicator: V-79/8-AZAGUANINE, Metabolic Activation: CELL-MEDIATED, Method: STANDARD PLATE active; positive | Test System: CHINESE HAMSTER V-79, Strain/Indicator: V-79/OUABAIN, Metabolic Activation: RAT, HEPATOCYTES, BUTYLATED HYDROXYANISOLE, Method: STANDARD PLATE active; positive | Test System: CHINESE HAMSTER V-79, Strain/Indicator: V-79/OUABAIN, Metabolic Activation: RAT, HEPATOCYTES, Method: STANDARD PLATE active; positive | Test System: MOUSE LYMPHOMA, Strain/Indicator: L5178Y (TK+/TK-), Metabolic Activation: RAT, LIVER, S-9, AROCLOR 1254, Method: SUSPENSION/PLATE active; positive | Test System: MOUSE SPLENIC LYMPHOCYTES, Strain/Indicator: C57BL/6 (TK+/-)/C57BL/6 (HPRT), Metabolic Activation: NONE, Method: IN VIVO/SUSPENSION/PLATE active; positive | Test System: UDS MONKEY HEPATOCYTES, Strain/Indicator: THY INCORP, Metabolic Activation: AROCLOR 1254, Method: AUTORADIOGRAPHY active; positive | Test System: UDS MONKEY HEPATOCYTES, Strain/Indicator: THY INCORP, Metabolic Activation: NONE, Method: AUTORADIOGRAPHY active; positive | Test System: UDS MOUSE EPIDERMIS IN VIVO/IN VITRO, Strain/Indicator: HOS:HR-1/THYMIDINE INCORPORATION, Metabolic Activation: NONE, Method: LIQUID SCINTILLATION active; positive | Test System: UDS RAT HEPATOCYTES, Strain/Indicator: BROMODEOXYURIDINE INCORP, Metabolic Activation: NONE, Method: FLOW CYTOMETRIC ANALYSIS active; positive | Test System: UDS RAT HEPATOCYTES, Strain/Indicator: THY INCORP, Metabolic Activation: NONE, Method: AUTORADIOGRAPHY active; positive | Test System: UDS RODENT HEPATOCYTES, Strain/Indicator: THY INCORP (NON-S-PHASE), Method: AUTORADIOGRAPHY active; positive | Test System: UDS RODENT PRIMARY CELLS, Strain/Indicator: THY INCORP (NON-S-PHASE), Metabolic Activation: NONE, Method: AUTORADIOGRAPHY active; positive
inactive: End Point: IN VIVO MICRONUCLEUS, Test System: MAMMARY GLAND CELLS, Species: RAT, Strain/Sex: SPRAGUE-DAWLEY/FEMALE, Route: INTRAGASTRIC inactive; negative | Test System: AMES SALMONELLA TYPHIMURIUM, Strain/Indicator: TA1535, Metabolic Activation: NONE, Method: SPIRAL ASSAY inactive; negative | Test System: AMES SALMONELLA TYPHIMURIUM, Strain/Indicator: TA1535, Metabolic Activation: NONE, Method: STANDARD PLATE inactive; negative | Test System: AMES SALMONELLA TYPHIMURIUM, Strain/Indicator: TA1535, Metabolic Activation: RAT, LIVER, S-9, AROCLOR 1254, Method: SPIRAL ASSAY inactive; negative | Test System: AMES SALMONELLA TYPHIMURIUM, Strain/Indicator: TA1535, Metabolic Activation: RAT, LIVER, S-9, AROCLOR 1254, Method: STANDARD PLATE inactive; negative | Test System: CHINESE HAMSTER V-79, Strain/Indicator: V-79/6-THIOGUANINE, Metabolic Activation: NONE, Method: STANDARD PLATE inactive; negative | Test System: CHINESE HAMSTER V-79, Strain/Indicator: V-79/OUABAIN, Metabolic Activation: NONE, Method: STANDARD PLATE inactive; negative | Test System: E. COLI, Strain/Indicator: WP2 UVRA, Metabolic Activation: HAMSTER, LIVER, S-9, AROCLOR 1254, Method: STANDARD PLATE inactive; negative | Test System: E. COLI, Strain/Indicator: WP2 UVRA, Metabolic Activation: HAMSTER, LIVER, S-9, Method: STANDARD PLATE inactive; negative | Test System: E. COLI, Strain/Indicator: WP2 UVRA, Metabolic Activation: MOUSE, LIVER, S-9, AROCLOR 1254, Method: STANDARD PLATE inactive; negative | Test System: E. COLI, Strain/Indicator: WP2 UVRA, Metabolic Activation: MOUSE, LIVER, S-9, Method: STANDARD PLATE inactive; negative | Test System: E. COLI, Strain/Indicator: WP2 UVRA, Metabolic Activation: NONE, Method: STANDARD PLATE inactive; negative | Test System: E. COLI, Strain/Indicator: WP2 UVRA, Metabolic Activation: RAT, LIVER, S-9, AROCLOR 1254, Method: STANDARD PLATE inactive; negative | Test System: E. COLI, Strain/Indicator: WP2 UVRA, Metabolic Activation: RAT, LIVER, S-9, Method: STANDARD PLATE inactive; negative | Test System: MOUSE LYMPHOMA, Strain/Indicator: L5178Y (TK+/TK-), Metabolic Activation: NONE, Method: SUSPENSION/PLATE inactive; negative
